{"source": "the kinase profiling compilation of Christmann-Franck et al. (2016)", "test_in_all_cases": "KINOMEscan competition binding", "key": {"MAPK8 (human)": {"biological_target": "MAPK8 (human) (UniProt P45983)", "settings": "compound 1.0 µM"}, "NTRK1 (human)": {"biological_target": "NTRK1 (human) (UniProt P04629)", "settings": "compound 1.0 µM"}, "IRAK1 (human)": {"biological_target": "IRAK1 (human) (UniProt P51617)", "settings": "compound 1.0 µM"}, "RIPK2 (human)": {"biological_target": "RIPK2 (human) (UniProt O43353)", "settings": "compound 1.0 µM"}, "[1]": {"test_system": "EGFR (human), P00533 [G719S]", "settings": "compound 1.0 µM"}, "RIOK1 (human)": {"biological_target": "RIOK1 (human) (UniProt Q9BRS2)", "settings": "compound 1.0 µM"}, "MAPK1 (human)": {"biological_target": "MAPK1 (human) (UniProt P28482)", "sequence (P28482 whole entry, looked up)": "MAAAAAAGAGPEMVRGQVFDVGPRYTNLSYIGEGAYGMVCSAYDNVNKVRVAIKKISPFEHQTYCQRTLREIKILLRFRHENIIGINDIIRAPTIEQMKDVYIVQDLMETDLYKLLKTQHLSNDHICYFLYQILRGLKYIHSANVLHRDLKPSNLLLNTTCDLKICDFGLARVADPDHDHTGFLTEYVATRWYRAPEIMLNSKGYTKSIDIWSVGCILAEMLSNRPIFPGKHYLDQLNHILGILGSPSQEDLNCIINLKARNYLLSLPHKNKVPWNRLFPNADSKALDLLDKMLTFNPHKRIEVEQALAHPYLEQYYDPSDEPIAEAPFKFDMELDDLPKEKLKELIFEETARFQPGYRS", "settings": "compound 1.0 µM"}, "CDKL5 (human)": {"biological_target": "CDKL5 (human) (UniProt O76039)", "sequence (O76039 whole entry, looked up)": "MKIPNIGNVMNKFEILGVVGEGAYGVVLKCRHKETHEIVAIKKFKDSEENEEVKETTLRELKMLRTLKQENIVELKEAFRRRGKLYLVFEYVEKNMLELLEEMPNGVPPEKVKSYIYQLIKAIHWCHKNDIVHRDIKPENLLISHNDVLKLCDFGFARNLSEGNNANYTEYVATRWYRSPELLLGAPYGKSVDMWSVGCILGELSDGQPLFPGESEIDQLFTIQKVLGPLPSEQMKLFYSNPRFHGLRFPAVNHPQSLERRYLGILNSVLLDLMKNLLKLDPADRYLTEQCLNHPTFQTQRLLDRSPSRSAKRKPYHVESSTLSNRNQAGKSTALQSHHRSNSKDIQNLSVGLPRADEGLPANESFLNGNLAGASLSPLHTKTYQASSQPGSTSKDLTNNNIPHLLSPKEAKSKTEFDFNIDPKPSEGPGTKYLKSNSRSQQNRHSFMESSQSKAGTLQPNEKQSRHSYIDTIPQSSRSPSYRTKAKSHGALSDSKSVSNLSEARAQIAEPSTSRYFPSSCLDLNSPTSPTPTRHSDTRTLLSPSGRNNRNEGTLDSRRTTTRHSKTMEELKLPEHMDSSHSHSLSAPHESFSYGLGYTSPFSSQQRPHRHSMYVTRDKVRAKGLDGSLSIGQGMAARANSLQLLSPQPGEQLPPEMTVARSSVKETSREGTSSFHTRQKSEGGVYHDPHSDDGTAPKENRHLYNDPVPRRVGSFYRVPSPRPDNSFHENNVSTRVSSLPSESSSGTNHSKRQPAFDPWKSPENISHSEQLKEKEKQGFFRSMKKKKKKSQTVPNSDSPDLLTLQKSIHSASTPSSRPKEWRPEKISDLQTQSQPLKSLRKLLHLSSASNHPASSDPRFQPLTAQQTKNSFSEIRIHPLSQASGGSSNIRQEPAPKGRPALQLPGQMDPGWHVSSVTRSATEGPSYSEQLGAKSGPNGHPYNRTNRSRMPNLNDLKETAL"}, "PRPF4B (human)": {"biological_target": "PRPF4B (human) (UniProt Q13523)", "settings": "compound 1.0 µM"}, "RPS6KA1 KD2 (human)": {"biological_target": "RPS6KA1 KD2 (human) (UniProt Q15418)", "settings": "compound 1.0 µM"}, "INSRR (human)": {"biological_target": "INSRR (human) (UniProt P14616)", "settings": "compound 1.0 µM"}, "MARK3 (human)": {"biological_target": "MARK3 (human) (UniProt P27448)", "sequence (P27448 whole entry, looked up)": "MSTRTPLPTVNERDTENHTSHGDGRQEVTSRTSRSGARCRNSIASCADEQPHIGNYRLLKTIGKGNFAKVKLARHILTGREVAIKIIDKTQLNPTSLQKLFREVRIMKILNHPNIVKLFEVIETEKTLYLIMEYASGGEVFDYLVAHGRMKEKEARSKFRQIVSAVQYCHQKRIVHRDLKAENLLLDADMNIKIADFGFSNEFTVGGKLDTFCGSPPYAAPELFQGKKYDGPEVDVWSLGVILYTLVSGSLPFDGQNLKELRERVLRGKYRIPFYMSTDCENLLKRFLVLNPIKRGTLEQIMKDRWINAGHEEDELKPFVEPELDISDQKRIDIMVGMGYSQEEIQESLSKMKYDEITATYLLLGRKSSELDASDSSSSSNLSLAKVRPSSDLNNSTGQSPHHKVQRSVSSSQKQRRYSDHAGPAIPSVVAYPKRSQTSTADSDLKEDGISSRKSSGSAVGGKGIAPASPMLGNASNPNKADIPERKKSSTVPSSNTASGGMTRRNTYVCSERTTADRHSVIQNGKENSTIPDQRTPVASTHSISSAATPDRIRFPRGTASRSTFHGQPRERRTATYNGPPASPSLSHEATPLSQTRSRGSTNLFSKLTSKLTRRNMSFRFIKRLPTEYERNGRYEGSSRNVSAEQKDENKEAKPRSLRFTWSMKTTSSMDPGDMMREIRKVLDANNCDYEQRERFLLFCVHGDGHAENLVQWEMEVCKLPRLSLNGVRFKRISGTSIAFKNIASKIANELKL", "settings": "compound 1.0 µM"}, "ERN1 (human)": {"biological_target": "ERN1 (human) (UniProt O75460)", "settings": "compound 1.0 µM"}, "STK32A (human)": {"biological_target": "STK32A (human) (UniProt Q8WU08)", "settings": "compound 1.0 µM"}, "PHKG2 (human)": {"biological_target": "PHKG2 (human) (UniProt P15735)", "settings": "compound 1.0 µM"}, "GRK1 (human)": {"biological_target": "GRK1 (human) (UniProt Q15835)", "settings": "compound 1.0 µM"}, "FGR (human)": {"biological_target": "FGR (human) (UniProt P09769)", "settings": "compound 1.0 µM"}, "PAK7 (human)": {"biological_target": "PAK7 (human) (UniProt Q9P286)", "settings": "compound 1.0 µM"}, "MAPKAPK2 (human)": {"biological_target": "MAPKAPK2 (human) (UniProt P49137)", "sequence (P49137 whole entry, looked up)": "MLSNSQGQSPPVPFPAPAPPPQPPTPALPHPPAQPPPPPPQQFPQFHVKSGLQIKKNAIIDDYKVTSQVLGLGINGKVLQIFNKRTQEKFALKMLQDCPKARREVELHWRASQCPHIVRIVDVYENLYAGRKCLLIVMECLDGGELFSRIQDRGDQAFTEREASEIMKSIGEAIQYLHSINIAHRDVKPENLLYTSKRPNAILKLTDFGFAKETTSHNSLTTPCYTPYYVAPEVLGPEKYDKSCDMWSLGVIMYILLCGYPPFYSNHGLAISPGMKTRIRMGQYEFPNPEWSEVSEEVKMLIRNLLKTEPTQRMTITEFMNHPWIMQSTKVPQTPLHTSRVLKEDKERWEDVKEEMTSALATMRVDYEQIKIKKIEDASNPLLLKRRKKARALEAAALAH", "settings": "compound 1.0 µM"}, "NEK11 (human)": {"biological_target": "NEK11 (human) (UniProt Q8NG66)", "sequence (Q8NG66 whole entry, looked up)": "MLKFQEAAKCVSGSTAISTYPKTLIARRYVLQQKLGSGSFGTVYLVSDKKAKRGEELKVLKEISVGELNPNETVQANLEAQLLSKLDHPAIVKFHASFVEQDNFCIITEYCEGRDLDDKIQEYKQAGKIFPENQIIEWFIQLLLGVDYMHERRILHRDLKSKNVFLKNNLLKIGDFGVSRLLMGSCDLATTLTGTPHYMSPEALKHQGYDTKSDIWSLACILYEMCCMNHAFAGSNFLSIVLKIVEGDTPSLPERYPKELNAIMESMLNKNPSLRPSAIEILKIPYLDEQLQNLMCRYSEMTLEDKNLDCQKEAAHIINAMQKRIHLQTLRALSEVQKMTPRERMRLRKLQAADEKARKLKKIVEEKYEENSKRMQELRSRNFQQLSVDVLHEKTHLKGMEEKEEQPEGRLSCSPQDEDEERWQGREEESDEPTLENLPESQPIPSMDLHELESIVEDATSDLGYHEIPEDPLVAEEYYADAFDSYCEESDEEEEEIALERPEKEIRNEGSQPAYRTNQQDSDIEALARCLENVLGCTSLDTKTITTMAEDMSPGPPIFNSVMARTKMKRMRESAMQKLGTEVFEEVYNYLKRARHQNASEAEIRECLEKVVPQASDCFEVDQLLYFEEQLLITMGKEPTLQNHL", "settings": "compound 1.0 µM"}, "RIPK1 (human)": {"biological_target": "RIPK1 (human) (UniProt Q13546)", "settings": "compound 1.0 µM"}, "CDK14 (human)": {"biological_target": "CDK14 (human) (UniProt O94921)", "settings": "compound 1.0 µM"}, "[2]": {"test_system": "EGFR (human), P00533 [T790M]", "settings": "compound 1.0 µM"}, "[3]": {"test_system": "PIK3CA (human), P42336 [H1047L]", "settings": "compound 1.0 µM"}, "NLK (human)": {"biological_target": "NLK (human) (UniProt Q9UBE8)", "settings": "compound 1.0 µM"}, "[4]": {"test_system": "PIK3CA (human), P42336 [E545A]", "settings": "compound 1.0 µM"}, "[5]": {"test_system": "FLT3 (human), P36888 [N841I]", "settings": "compound 1.0 µM"}, "FLT3 (human)": {"biological_target": "FLT3 (human) (UniProt P36888)", "settings": "compound 1.0 µM"}, "DSTYK (human)": {"biological_target": "DSTYK (human) (UniProt Q6XUX3)", "settings": "compound 1.0 µM"}, "EPHB3 (human)": {"biological_target": "EPHB3 (human) (UniProt P54753)", "settings": "compound 1.0 µM"}, "PIK3CA (human)": {"biological_target": "PIK3CA (human) (UniProt P42336)", "settings": "compound 1.0 µM"}, "MYLK2 (human)": {"biological_target": "MYLK2 (human) (UniProt Q9H1R3)", "sequence (Q9H1R3 whole entry, looked up)": "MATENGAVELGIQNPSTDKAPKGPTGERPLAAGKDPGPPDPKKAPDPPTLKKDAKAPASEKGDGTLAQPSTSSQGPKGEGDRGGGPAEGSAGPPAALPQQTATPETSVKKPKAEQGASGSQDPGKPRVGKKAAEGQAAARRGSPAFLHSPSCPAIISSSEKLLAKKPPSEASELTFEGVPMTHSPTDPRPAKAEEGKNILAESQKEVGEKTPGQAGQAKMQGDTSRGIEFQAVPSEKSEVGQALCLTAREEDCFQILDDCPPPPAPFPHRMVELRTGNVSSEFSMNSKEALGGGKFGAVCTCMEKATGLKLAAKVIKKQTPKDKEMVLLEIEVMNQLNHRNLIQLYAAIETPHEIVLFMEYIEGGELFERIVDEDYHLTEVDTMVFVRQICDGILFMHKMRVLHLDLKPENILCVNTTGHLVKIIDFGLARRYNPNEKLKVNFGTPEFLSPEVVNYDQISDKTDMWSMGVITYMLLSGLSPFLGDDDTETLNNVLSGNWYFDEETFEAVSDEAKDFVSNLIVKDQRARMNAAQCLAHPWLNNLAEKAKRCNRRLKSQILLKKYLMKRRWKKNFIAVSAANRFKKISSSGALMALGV", "settings": "compound 1.0 µM"}, "CSF1R (human)": {"biological_target": "CSF1R (human) (UniProt P07333)", "settings": "compound 1.0 µM"}, "[6]": {"test_system": "EGFR (human), P00533 [P753S; 747-752 del]", "settings": "compound 1.0 µM"}, "EPHA3 (human)": {"biological_target": "EPHA3 (human) (UniProt P29320)", "settings": "compound 1.0 µM"}, "TGFBR2 (human)": {"biological_target": "TGFBR2 (human) (UniProt P37173)", "sequence (P37173 whole entry, looked up)": "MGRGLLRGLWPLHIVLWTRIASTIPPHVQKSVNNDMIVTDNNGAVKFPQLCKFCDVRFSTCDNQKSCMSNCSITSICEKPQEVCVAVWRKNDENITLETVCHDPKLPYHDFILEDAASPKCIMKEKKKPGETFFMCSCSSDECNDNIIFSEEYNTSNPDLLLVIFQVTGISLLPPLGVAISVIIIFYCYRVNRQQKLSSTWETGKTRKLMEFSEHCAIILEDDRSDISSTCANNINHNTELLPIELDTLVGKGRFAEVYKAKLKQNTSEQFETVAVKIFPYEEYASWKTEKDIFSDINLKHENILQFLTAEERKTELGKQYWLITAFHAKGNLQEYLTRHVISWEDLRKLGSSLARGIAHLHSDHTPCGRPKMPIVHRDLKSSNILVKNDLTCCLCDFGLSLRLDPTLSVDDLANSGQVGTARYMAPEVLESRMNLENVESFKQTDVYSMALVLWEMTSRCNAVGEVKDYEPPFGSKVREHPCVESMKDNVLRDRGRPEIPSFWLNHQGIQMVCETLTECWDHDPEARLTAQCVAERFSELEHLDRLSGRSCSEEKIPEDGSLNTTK", "settings": "compound 1.0 µM"}, "PRKD1 (human)": {"biological_target": "PRKD1 (human) (UniProt Q15139)", "settings": "compound 1.0 µM"}, "CIT (human)": {"biological_target": "CIT (human) (UniProt O14578)", "settings": "compound 1.0 µM"}, "[7]": {"test_system": "RET (human), P07949 [M918T]", "settings": "compound 1.0 µM"}, "CLK4 (human)": {"biological_target": "CLK4 (human) (UniProt Q9HAZ1)", "sequence (Q9HAZ1 whole entry, looked up)": "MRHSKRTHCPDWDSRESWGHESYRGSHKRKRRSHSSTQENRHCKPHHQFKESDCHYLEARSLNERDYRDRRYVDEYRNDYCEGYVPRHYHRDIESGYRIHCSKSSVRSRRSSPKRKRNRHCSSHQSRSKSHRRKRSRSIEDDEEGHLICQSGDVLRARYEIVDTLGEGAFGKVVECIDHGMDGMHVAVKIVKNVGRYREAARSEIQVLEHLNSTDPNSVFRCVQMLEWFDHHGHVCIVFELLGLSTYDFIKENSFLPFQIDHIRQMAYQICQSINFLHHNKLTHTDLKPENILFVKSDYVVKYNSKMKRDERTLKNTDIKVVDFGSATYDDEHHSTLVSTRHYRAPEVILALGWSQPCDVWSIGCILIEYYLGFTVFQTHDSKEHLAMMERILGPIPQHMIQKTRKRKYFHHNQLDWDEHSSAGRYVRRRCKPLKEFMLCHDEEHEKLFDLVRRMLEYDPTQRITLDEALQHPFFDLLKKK", "settings": "compound 1.0 µM"}, "ACVR2A (human)": {"biological_target": "ACVR2A (human) (UniProt P27037)", "settings": "compound 1.0 µM"}, "GAK (human)": {"biological_target": "GAK (human) (UniProt O14976)", "settings": "compound 1.0 µM"}}, "data": [{"smiles": "CN(C)C/C=C/C(=O)Nc1cccc(C(=O)Nc2ccc(Nc3nccc(-c4cccnc4)n3)cc2)c1", "values": [{"measurement": "kinase still bound, per cent of control", "setting": "MAPK8 (human)", "result": 0, "unit": "%"}, {"measurement": "kinase still bound, per cent of control", "setting": "NTRK1 (human)", "result": 76, "unit": "%"}, {"measurement": "kinase still bound, per cent of control", "setting": "IRAK1 (human)", "result": 0.1, "unit": "%"}, {"measurement": "kinase still bound, per cent of control", "setting": "RIPK2 (human)", "result": 55, "unit": "%"}, {"measurement": "kinase still bound, per cent of control", "setting": "[1]", "result": 78, "unit": "%"}, {"measurement": "kinase still bound, per cent of control", "setting": "RIOK1 (human)", "result": 15, "unit": "%"}, {"measurement": "kinase still bound, per cent of control", "setting": "MAPK1 (human)", "result": 100, "unit": "%"}, {"measurement": "Kd", "setting": "CDKL5 (human)", "result": 34, "unit": "nM"}, {"measurement": "kinase still bound, per cent of control", "setting": "CDKL5 (human); compound 1.0 µM", "result": 1.7, "unit": "%"}, {"measurement": "kinase still bound, per cent of control", "setting": "PRPF4B (human)", "result": 93, "unit": "%"}, {"measurement": "kinase still bound, per cent of control", "setting": "RPS6KA1 KD2 (human)", "result": 82, "unit": "%"}, {"measurement": "kinase still bound, per cent of control", "setting": "INSRR (human)", "result": 100, "unit": "%"}, {"measurement": "kinase still bound, per cent of control", "setting": "MARK3 (human)", "result": 100, "unit": "%"}, {"measurement": "kinase still bound, per cent of control", "setting": "ERN1 (human)", "result": 78, "unit": "%"}, {"measurement": "kinase still bound, per cent of control", "setting": "STK32A (human)", "result": 100, "unit": "%"}, {"measurement": "kinase still bound, per cent of control", "setting": "PHKG2 (human)", "result": 64, "unit": "%"}, {"measurement": "kinase still bound, per cent of control", "setting": "GRK1 (human)", "result": 100, "unit": "%"}, {"measurement": "kinase still bound, per cent of control", "setting": "FGR (human)", "result": 69, "unit": "%"}, {"measurement": "kinase still bound, per cent of control", "setting": "PAK7 (human)", "result": 75, "unit": "%"}, {"measurement": "kinase still bound, per cent of control", "setting": "MAPKAPK2 (human)", "result": 100, "unit": "%"}, {"measurement": "kinase still bound, per cent of control", "setting": "NEK11 (human)", "result": 86, "unit": "%"}, {"measurement": "kinase still bound, per cent of control", "setting": "RIPK1 (human)", "result": 18, "unit": "%"}, {"measurement": "kinase still bound, per cent of control", "setting": "CDK14 (human)", "result": 53, "unit": "%"}, {"measurement": "kinase still bound, per cent of control", "setting": "[2]", "result": 91, "unit": "%"}, {"measurement": "kinase still bound, per cent of control", "setting": "[3]", "result": 100, "unit": "%"}, {"measurement": "kinase still bound, per cent of control", "setting": "NLK (human)", "result": 81, "unit": "%"}, {"measurement": "kinase still bound, per cent of control", "setting": "[4]", "result": 95, "unit": "%"}, {"measurement": "kinase still bound, per cent of control", "setting": "[5]", "result": 18, "unit": "%"}, {"measurement": "kinase still bound, per cent of control", "setting": "FLT3 (human)", "result": 64, "unit": "%"}, {"measurement": "kinase still bound, per cent of control", "setting": "DSTYK (human)", "result": 100, "unit": "%"}, {"measurement": "kinase still bound, per cent of control", "setting": "EPHB3 (human)", "result": 96, "unit": "%"}, {"measurement": "kinase still bound, per cent of control", "setting": "PIK3CA (human)", "result": 75, "unit": "%"}, {"measurement": "kinase still bound, per cent of control", "setting": "MYLK2 (human)", "result": 35, "unit": "%"}, {"measurement": "kinase still bound, per cent of control", "setting": "CSF1R (human)", "result": 52, "unit": "%"}, {"measurement": "kinase still bound, per cent of control", "setting": "[6]", "result": 99, "unit": "%"}, {"measurement": "kinase still bound, per cent of control", "setting": "EPHA3 (human)", "result": 80, "unit": "%"}, {"measurement": "kinase still bound, per cent of control", "setting": "TGFBR2 (human)", "result": 76, "unit": "%"}, {"measurement": "kinase still bound, per cent of control", "setting": "PRKD1 (human)", "result": 100, "unit": "%"}, {"measurement": "kinase still bound, per cent of control", "setting": "CIT (human)", "result": 28, "unit": "%"}, {"measurement": "kinase still bound, per cent of control", "setting": "[7]", "result": 100, "unit": "%"}, {"measurement": "kinase still bound, per cent of control", "setting": "CLK4 (human)", "result": 16, "unit": "%"}, {"measurement": "kinase still bound, per cent of control", "setting": "ACVR2A (human)", "result": 43, "unit": "%"}, {"measurement": "kinase still bound, per cent of control", "setting": "GAK (human)", "result": 33, "unit": "%"}]}]}
